Measured values from patent US20130137865A1 (TAISHO PHARMACEUTICAL CO., LTD., priority 2010, published 2013).

target: T1, rat mGlu2 receptor (Rattus norvegicus, UniProt P31421); assay: [35S]GTPγS binding test (1), membranes of CHO cells stably expressing rat mGlu2; format: biochemical; settings: inhibition of glutamic acid (20 μM)-stimulated specific [35S]GTPγS binding
T1 construct: expressed in transfected cells; host or cells: CHO cells
Procedure: (Preparation of Crude Membrane Fraction of CHO Cells Stably Expressing the Rat Metabotropic Glutamate Receptor (mGlu2))
CHO cells stably expressing the rat mGlu2 receptor were cultured in a 10% dialyzed fetal bovine serum-containing Dulbecco's Modified Eagle's Medium [1% proline, 50 units/mL penicillin, 50 μg/mL streptomycin, and 2 mM L-glutamine (to be added when used)] at 37° C. in 5% CO2. Confluent cells were washed with PBS(−) twice, and were then harvested with a cell scraper. Then, the cells were centrifuged at 4° C. at 1000 rpm for 5 minutes to collect. The obtained precipitate was suspended in a 20 mM HEPES buffer (pH 7.4), and then homogenized with a Teflon® homogenizer. The resultant was centrifuged at 4° C. at 48,000×g for 20 minutes to obtain a precipitate again. The obtained precipitate was washed twice by centrifugation, and was then homogenized with the above-mentioned buffer, so as to obtain a crude membrane fraction. The obtained crude membrane fraction was preserved at −80° C.
The frozen membrane fraction as prepared above was thawed when used, and it was then diluted with a binding test buffer (final concentration: 20 mM HEPES, 100 mM NaCl, 10 mM MgCl2, 8.4 μM GDP, 10 μg/mL saponin, and 0.1% BSA). The compound of the Example was added to a membrane fraction (10 μg protein/assay), and the obtained mixture was then incubated at 30° C. for 20 minutes. Thereafter, glutamic acid (final concentration: 20 μM) and [^35S]GTPγS (final concentration: 0.15 nM) were added to the reaction mixture, and then incubated at 30° C. for 1 hour. After completion of the incubation, the reaction mixture was subjected to filtration over a Whatman GF/C filter that had previously been immersed in a 20 mM HEPES buffer (pH 7.4), and the filter was then washed three times with 300 μL of ice-cold 20 mM HEPES buffer (pH 7.4). A scintillation cocktail was added to the resulting filter, and membrane-bound radioactivity was then measured with a liquid scintillation counter.
The amount of [^35S]GTPγS bound in the case of carrying out the above described reaction in the absence of glutamic acid was defined as non-specific binding. The difference between such non-specific bound and the amount of [^35S]GTPγS bound in the presence of glutamic acid was defined as specific binding. Using non-linear analysis, a concentration-inhibition curve was produced. The concentration of the compound of each Example that caused 50% inhibition (IC50 value) of specific binding was determined from each concentration-inhibition curve.

T1 sequence (P31421 19-872): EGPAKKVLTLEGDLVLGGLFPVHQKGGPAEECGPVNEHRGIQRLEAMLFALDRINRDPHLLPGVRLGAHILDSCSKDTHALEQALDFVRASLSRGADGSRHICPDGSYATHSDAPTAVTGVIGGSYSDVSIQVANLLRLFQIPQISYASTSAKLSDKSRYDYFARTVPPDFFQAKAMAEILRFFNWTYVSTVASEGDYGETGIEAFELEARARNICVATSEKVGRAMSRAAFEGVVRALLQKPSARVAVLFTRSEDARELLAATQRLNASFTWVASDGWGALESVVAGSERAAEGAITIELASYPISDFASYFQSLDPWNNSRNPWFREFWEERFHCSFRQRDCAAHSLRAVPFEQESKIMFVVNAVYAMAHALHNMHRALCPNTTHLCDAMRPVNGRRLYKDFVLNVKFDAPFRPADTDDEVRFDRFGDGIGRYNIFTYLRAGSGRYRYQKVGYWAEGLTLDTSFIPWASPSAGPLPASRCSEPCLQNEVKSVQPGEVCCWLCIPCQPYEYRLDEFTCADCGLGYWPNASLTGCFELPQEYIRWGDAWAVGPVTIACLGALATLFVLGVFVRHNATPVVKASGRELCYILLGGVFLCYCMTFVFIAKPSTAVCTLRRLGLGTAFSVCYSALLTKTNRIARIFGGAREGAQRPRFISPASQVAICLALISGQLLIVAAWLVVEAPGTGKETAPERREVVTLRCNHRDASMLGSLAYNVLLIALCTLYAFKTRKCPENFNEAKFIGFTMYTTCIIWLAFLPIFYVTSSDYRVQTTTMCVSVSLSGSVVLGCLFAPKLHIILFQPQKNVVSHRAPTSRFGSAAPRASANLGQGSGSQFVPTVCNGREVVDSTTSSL

Row | SMILES | IC50
1 | Cn1ncc(-c2nc(-c3cccc(S(N)(=O)=O)c3)no2)c1N1Cc2ccc(C(F)(F)F)cc2C1 [Example 21, 3-(5-{1-Methyl-5-[5-(trifluoromethyl)-1,3-dihydro-2H-isoindol-2-yl]-1H-pyrazol-4-yl}-1,2,4-oxadiazol-3-yl)benzenesulfonamide] | 14.8 nM
2 | Cn1ncc(-c2noc(-c3ccc(S(N)(=O)=O)cc3)n2)c1CCc1ccc(C(F)(F)F)cc1 [Example 3, 4-[3-(1-Methyl-5-{2-[4-(trifluoromethyl)phenyl]ethyl}-1H-pyrazol-4-yl)-1,2,4-oxadiazol-5-yl]benzenesulfonamide] | 3.65 nM
3 | Cn1ncc(-c2nc(-c3ccc(S(N)(=O)=O)cc3)no2)c1CCc1ccc(C(F)(F)F)cc1 [Example 19, 4-[5-(1-Methyl-5-{2-[4-(trifluoromethyl)phenyl]ethyl}-1H-pyrazol-4-yl)-1,2,4-oxadiazol-3-yl]benzenesulfonamide] | 8.69 nM
4 | Cc1ccc(OCc2c(-c3nc(-c4cccc(S(N)(=O)=O)c4)no3)cnn2C)cc1 [Example 51, 3-(5-{1-Methyl-5-[(4-methylphenoxy)methyl]-1H-pyrazol-4-yl}-1,2,4-oxadiazol-3-yl)benzenesulfonamide] | 8.16 nM
5 | Cn1ncc(-c2nc(-c3cccc(S(N)(=O)=O)c3)no2)c1CNc1ccc(C(F)(F)F)cc1 [Example 9] | 28.5 nM
6 | Cn1ncc(-c2nc(-c3ccc(S(=O)(=O)O)cc3)no2)c1CCc1ccc(C(F)(F)F)cc1 [Example 15, 4-[5-(1-Methyl-5-{2-[4-(trifluoromethyl)phenyl]ethyl}-1H-pyrazol-4-yl)-1,2,4-oxadiazol-3-yl]benzenesulfonic acid] | 39.6 nM
7 | Cn1ncc(-c2nc(-c3ccc(S(N)(=O)=O)cc3)no2)c1OCc1ccc(C(F)(F)F)cc1 [Example 56, 4-[5-(1-Methyl-5-{[4-(trifluoromethyl)benzyl]oxy}-1H-pyrazol-4-yl)-1,2,4-oxadiazol-3-yl]benzenesulfonamide] | 44.7 nM
8 | Cn1ncc(-c2nc(-c3cccc(S(N)(=O)=O)c3)no2)c1COc1ccc(C(F)(F)F)cc1 [Example 37, 3-[5-(1-Methyl-5-{[4-(trifluoromethyl)phenoxy]methyl}-1H-pyrazol-4-yl)-1,2,4-oxadiazol-3-yl]benzenesulfonamide] | 1.29 nM
9 | Cn1ncc(-c2nc(-c3cccc(S(N)(=O)=O)c3)no2)c1CCc1ccc(C(F)(F)F)cn1 [Example 8, 3-[5-(1-Methyl-5-{2-[5-(trifluoromethyl)pyridin-2-yl]ethyl}-1H-pyrazol-4-yl)-1,2,4-oxadiazol-3-yl]benzenesulfonamide] | 98.5 nM
10 | COc1cccc(OCc2c(-c3nc(-c4cccc(S(N)(=O)=O)c4)no3)cnn2C)c1 [Example 66, 3-(5-{5-[(3-Methoxyphenoxy)methyl]-1-methyl-1H-pyrazol-4-yl}-1,2,4-oxadiazol-3-yl)benzenesulfonamide] | 4.29 nM

The remaining molecules from weak to strong by IC50, led by results:

Row | IC50 | SMILES
11 | 58.5 nM | Cn1ncc(-n2cc(-c3ccc(S(N)(=O)=O)cc3)cn2)c1CCc1ccc(C(F)(F)F)cc1 [Example 6, 4-(1′-Methyl-5′-{2-[4-(trifluoromethyl)phenyl]ethyl}-1′H-1,4′-bipyrazol-4-yl)benzenesulfonamide]
12 | 25.1 nM | Cn1ncc(-c2nc(-c3cccc(S(=O)(=O)O)c3)no2)c1COc1ccc(C(F)(F)F)cc1 [Example 134, 3-[5-(1-Methyl-5-{[4-(trifluoromethyl)phenoxy]methyl}-1H-pyrazol-4-yl)-1,2,4-oxadiazol-3-yl]benzenesulfonic acid]
13 | 22 nM | CN(C)CCNS(=O)(=O)c1ccc(-c2noc(-c3cnn(C)c3CCc3ccc(C(F)(F)F)cc3)n2)cc1 [Example 31, N-[2-(Dimethylamino)ethyl]-4-[5-(1-methyl-5-{2-[4-(trifluoromethyl)phenyl]ethyl}-1H-pyrazol-4-yl)-1,2,4-oxadiazol-3-yl]benzenesulfonamide]
14 | 17.6 nM | Cn1ncc(-c2nc(-c3cccc(S(N)(=O)=O)c3)no2)c1C#Cc1ccc(C(F)(F)F)cn1 [Example 7, 3-[5-(1-Methyl-5-{[5-(trifluoromethyl)pyridin-2-yl]ethynyl}-1H-pyrazol-4-yl)-1,2,4-oxadiazol-3-yl]benzenesulfonamide]
15 | 10.1 nM | Cn1ncc(-c2nc(-c3cccc(S(N)(=O)=O)c3)co2)c1CCc1ccc(C(F)(F)F)cc1 [Example 10, 3-[2-(1-Methyl-5-{2-[4-(trifluoromethyl)phenyl]ethyl}-1H-pyrazol-4-yl)-1,3-oxazol-4-yl]benzenesulfonamide]
16 | 9.06 nM | NS(=O)(=O)c1cccc(-c2noc(-c3cnn(CF)c3CCc3ccc(C(F)(F)F)cc3)n2)c1 [Example 41, 3-{5-[1-(Fluoromethyl)-5-{2-[4-(trifluoromethyl)phenyl]ethyl}-1H-pyrazol-4-yl]-1,2,4-oxadiazol-3-yl}benzenesulfonamide]
17 | 6.9 nM | Cn1ncc(-c2nc(-c3cccc(S(N)(=O)=O)c3)no2)c1COc1cccc(F)c1 [Example 68, 3-(5-{5-[(3-Fluorophenoxy)methyl]-1-methyl-1H-pyrazol-4-yl}-1,2,4-oxadiazol-3-yl)benzenesulfonamide]
